# Reference: ChEMBL document CHEMBL4043269, “Synthesis and structure activity relationships of carbamimidoylcarbamate derivatives as novel vascular adhesion protein-1 inhibitors” (Bioorg Med Chem, 2017)
# Key:
# [1] = Cmax in Sprague-Dawley rat at 1 mg/kg, po by LC-MS/MS analysis; type: ADME, organism-based; set-up: dose 1 mg/kg, route oral; details: in vivo
# [2] = target: T1, CYP1A2 (Homo sapiens, UniProt P05177); experiment: Inhibition of CYP1A2 in human liver microsomes using phenacetin as substrate assessed as residual activity at 5 uM after 20 mins by HPLC analysis; type: ADME; details: probe phenacetin, read-out: Activity
# T1 sequence (P05177 whole entry): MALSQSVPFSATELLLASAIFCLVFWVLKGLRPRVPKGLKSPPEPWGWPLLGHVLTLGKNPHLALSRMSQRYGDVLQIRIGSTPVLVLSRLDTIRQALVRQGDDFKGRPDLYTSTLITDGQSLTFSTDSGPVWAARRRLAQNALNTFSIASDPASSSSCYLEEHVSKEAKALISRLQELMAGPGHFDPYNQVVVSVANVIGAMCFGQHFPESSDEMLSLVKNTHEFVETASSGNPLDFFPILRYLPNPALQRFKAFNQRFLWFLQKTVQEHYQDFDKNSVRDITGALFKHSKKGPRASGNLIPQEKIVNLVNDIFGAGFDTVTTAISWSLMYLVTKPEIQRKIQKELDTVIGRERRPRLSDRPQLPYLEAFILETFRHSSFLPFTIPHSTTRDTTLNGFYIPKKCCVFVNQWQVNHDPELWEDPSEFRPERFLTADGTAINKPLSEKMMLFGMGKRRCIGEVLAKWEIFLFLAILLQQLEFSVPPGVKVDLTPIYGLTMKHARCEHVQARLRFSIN
# [3] = Half life in cynomolgus monkey at 0.2 mg/kg, iv by LC-MS/MS analysis; type: ADME, organism-based, Macaca fascicularis; details: in vivo
# [4] = Cmax in cynomolgus monkey at 0.2 mg/kg, po by LC-MS/MS analysis; type: ADME, organism-based, Macaca fascicularis; set-up: dose 0.2 mg/kg, route oral; details: in vivo
# [5] = Volume of distribution at steady state in Sprague-Dawley rat at 1 mg/kg, iv by LC-MS/MS analysis; type: ADME, organism-based; details: in vivo, read-out: Vdss
# [6] = Total clearance in cynomolgus monkey at 0.2 mg/kg, iv by LC-MS/MS analysis; type: ADME, organism-based, Macaca fascicularis; details: in vivo
# [7] = Total clearance in Beagle dog at 0.2 mg/kg, iv by LC-MS/MS analysis; type: ADME, organism-based, Canis lupus familiaris; details: in vivo
# [8] = Half life in Sprague-Dawley rat at 1 mg/kg, iv by LC-MS/MS analysis; type: ADME, organism-based; details: in vivo
# [9] = Tmax in cynomolgus monkey at 0.2 mg/kg, po by LC-MS/MS analysis; type: ADME, organism-based, Macaca fascicularis; details: in vivo
# [10] = Oral bioavailability in Sprague-Dawley rat at 1 mg/kg by LC-MS/MS analysis; type: ADME, organism-based; details: in vivo
# [11] = system: Rattus norvegicus; experiment: In vivo inhibition of VAP-1 in Wistar rat plasma at 0.3 mg/kg, po after 1 hr in presence of [14C]-benzylamine by liquid scintillation counting analysis relative to control; type: functional
# [12] = target: CYP3A4 (Homo sapiens, UniProt P08684); experiment: Inhibition of CYP3A4 in human liver microsomes using midazolam as substrate assessed as residual activity at 5 uM after 20 mins by HPLC analysis; type: ADME; details: probe midazolam, read-out: Activity
# [13] = AUC in cynomolgus monkey at 0.2 mg/kg, iv by LC-MS/MS analysis; type: ADME, organism-based, Macaca fascicularis; details: in vivo
# [14] = target: T2, CYP2C8 (Homo sapiens, UniProt P10632); experiment: Inhibition of CYP2C8 in human liver microsomes using amodiaquine as substrate assessed as residual activity at 5 uM after 20 mins by HPLC analysis; type: ADME; details: probe amodiaquine, read-out: Activity
# T2 sequence (P10632 whole entry): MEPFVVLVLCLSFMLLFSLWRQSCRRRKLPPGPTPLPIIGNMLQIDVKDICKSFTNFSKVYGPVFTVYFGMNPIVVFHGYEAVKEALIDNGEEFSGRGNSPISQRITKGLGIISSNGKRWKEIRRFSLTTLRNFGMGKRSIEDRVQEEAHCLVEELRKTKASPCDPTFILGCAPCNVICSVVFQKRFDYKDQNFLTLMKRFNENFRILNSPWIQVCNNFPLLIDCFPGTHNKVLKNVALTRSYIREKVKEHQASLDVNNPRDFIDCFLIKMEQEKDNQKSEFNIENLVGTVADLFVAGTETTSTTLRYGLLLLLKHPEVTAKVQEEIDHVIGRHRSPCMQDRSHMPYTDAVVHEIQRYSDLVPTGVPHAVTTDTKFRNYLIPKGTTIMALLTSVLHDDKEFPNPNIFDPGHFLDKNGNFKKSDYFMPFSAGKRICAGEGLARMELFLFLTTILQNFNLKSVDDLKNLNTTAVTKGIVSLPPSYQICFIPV
# [15] = target: CYP2D6 (Homo sapiens, UniProt P10635); experiment: Inhibition of CYP2D6 in human liver microsomes using dextromethorphan as substrate assessed as residual activity at 5 uM after 20 mins by HPLC analysis; type: ADME; details: probe dextromethorphan, read-out: Activity
# [16] = AUC in Beagle dog at 0.2 mg/kg, iv by LC-MS/MS analysis; type: ADME, organism-based, Canis lupus familiaris; details: in vivo
# [17] = Tmax in Beagle dog at 0.2 mg/kg, po by LC-MS/MS analysis; type: ADME, organism-based, Canis lupus familiaris; details: in vivo
# [18] = Total clearance in Sprague-Dawley rat at 1 mg/kg, iv by LC-MS/MS analysis; type: ADME, organism-based; details: in vivo
# [19] = system: Rattus norvegicus; experiment: In vivo inhibition of VAP-1 in Wistar rat plasma at 0.3 mg/kg, po after 6 hrs in presence of [14C]-benzylamine by liquid scintillation counting analysis relative to control; type: functional
# [20] = Oral bioavailability in cynomolgus monkey at 0.2 mg/kg by LC-MS/MS analysis; type: ADME, organism-based, Macaca fascicularis; details: in vivo
# [21] = Oral bioavailability in Beagle dog at 0.2 mg/kg by LC-MS/MS analysis; type: ADME, organism-based, Canis lupus familiaris; details: in vivo
# [22] = AUC in Beagle dog at 0.2 mg/kg, po by LC-MS/MS analysis; type: ADME, organism-based, Canis lupus familiaris; details: in vivo
# [23] = Aqueous solubility of compound in Japanese pharmacopoeia second fluid at pH 6.8 at 130 uM after 20 hrs by HPLC analysis; type: physicochemical
# [24] = Half life in Beagle dog at 0.2 mg/kg, iv by LC-MS/MS analysis; type: ADME, organism-based, Canis lupus familiaris; details: in vivo
# [25] = AUC in cynomolgus monkey at 0.2 mg/kg, po by LC-MS/MS analysis; type: ADME, organism-based, Macaca fascicularis; details: in vivo
# [26] = Cmax in Beagle dog at 0.2 mg/kg, po by LC-MS/MS analysis; type: ADME, organism-based, Canis lupus familiaris; set-up: dose 0.2 mg/kg, route oral; details: in vivo
# [27] = Tmax in Sprague-Dawley rat at 1 mg/kg, po by LC-MS/MS analysis; type: ADME, organism-based; details: in vivo
# [28] = AUC in Sprague-Dawley rat at 1 mg/kg, iv by LC-MS/MS analysis; type: ADME, organism-based; details: in vivo
# [29] = AUC in Sprague-Dawley rat at 1 mg/kg, po by LC-MS/MS analysis; type: ADME, organism-based; details: in vivo
# [30] = Volume of distribution at steady state in cynomolgus monkey at 0.2 mg/kg, iv by LC-MS/MS analysis; type: ADME, organism-based, Macaca fascicularis; details: in vivo, read-out: Vdss
# [31] = Volume of distribution at steady state in Beagle dog at 0.2 mg/kg, iv by LC-MS/MS analysis; type: ADME, organism-based, Canis lupus familiaris; details: in vivo, read-out: Vdss
# [32] = target: CYP2C19 (Homo sapiens, UniProt P33261); experiment: Inhibition of CYP2C19 in human liver microsomes using S-mephenytoin as substrate assessed as residual activity at 5 uM after 20 mins by HPLC analysis; type: ADME; details: probe S-mephenytoin, read-out: Activity
# CYP2C19, sequence (P33261 whole entry): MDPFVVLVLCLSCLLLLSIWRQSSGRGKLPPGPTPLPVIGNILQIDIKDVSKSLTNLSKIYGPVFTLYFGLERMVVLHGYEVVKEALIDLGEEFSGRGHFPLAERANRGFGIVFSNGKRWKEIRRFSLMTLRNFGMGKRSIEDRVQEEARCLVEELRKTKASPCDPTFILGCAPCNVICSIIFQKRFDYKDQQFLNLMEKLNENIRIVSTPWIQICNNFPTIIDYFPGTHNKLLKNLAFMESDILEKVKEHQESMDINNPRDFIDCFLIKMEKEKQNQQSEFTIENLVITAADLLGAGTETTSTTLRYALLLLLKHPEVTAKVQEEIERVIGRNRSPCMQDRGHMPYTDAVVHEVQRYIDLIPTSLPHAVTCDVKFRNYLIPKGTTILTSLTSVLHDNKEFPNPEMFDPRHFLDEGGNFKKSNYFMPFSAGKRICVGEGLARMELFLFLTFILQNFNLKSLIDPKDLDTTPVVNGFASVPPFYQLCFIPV
# CYP2D6, sequence (P10635 whole entry): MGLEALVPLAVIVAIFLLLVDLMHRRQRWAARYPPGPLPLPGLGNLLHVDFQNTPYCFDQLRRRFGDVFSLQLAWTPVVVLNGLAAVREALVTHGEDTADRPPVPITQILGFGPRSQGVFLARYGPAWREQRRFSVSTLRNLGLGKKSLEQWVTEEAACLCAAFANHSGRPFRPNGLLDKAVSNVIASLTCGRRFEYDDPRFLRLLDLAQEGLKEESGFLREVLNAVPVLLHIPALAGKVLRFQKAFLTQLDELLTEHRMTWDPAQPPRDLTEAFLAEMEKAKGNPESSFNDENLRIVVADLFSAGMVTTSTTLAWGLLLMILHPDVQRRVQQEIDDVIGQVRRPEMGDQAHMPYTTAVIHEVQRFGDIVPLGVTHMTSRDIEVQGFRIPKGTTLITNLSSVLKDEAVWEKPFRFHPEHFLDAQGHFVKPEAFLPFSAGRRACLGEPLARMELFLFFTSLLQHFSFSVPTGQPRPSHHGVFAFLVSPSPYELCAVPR
# CYP3A4, sequence (P08684 whole entry): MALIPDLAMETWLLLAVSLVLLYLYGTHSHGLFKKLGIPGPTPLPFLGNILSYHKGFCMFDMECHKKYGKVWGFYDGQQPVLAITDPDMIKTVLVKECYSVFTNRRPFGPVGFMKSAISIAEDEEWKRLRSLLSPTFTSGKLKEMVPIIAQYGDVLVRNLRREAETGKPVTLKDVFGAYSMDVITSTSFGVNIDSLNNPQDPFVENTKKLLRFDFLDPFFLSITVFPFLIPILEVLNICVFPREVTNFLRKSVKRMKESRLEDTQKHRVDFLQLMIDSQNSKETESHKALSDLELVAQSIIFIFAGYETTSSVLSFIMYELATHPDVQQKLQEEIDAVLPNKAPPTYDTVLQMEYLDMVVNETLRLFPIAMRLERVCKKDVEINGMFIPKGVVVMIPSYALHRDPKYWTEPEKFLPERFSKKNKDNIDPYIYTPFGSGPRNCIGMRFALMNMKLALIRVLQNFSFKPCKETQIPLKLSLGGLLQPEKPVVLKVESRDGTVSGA
compound,measurement,setting,value
Cc1ccc(OC2CN(c3cccc(COC(=O)NC(=N)N)c3F)C2)cn1.O=C(O)C(O)C(O)C(=O)O,Cmax,[1],401 ng/mL
same,"activity at 20 min, 5 µM",[2],99%
same,half-life,[3],64 h
same,Cmax,[4],201 ng/mL
same,Vd,[5],1.06 L/kg
same,clearance,[6],0.7 mL/min/kg
same,clearance,[7],8.9 mL/min/kg
same,half-life,[8],3.3 h
same,Tmax,[9],2.7 h
same,bioavailability,[10],73%
same,inhibition in vivo at 0.3 mg/kg,[11],92%
same,"activity at 20 min, 5 µM",[12],85%
same,AUC,[13],5350 ng·h/mL
same,"activity at 20 min, 5 µM",[14],91%
same,"activity at 20 min, 5 µM",[15],95%
same,AUC,[16],380 ng·h/mL
same,Tmax,[17],0.8 h
same,clearance,[18],5.2 mL/min/kg
same,inhibition in vivo at 0.3 mg/kg,[19],74%
same,bioavailability,[20],85%
same,bioavailability,[21],78%
same,AUC,[22],297 ng·h/mL
same,"solubility at 20 h, 130 µM",[23],≥ 100 µM
same,half-life,[24],8.9 h
same,AUC,[25],4510 ng·h/mL
same,Cmax,[26],29.9 ng/mL
same,Tmax,[27],0.8 h
same,AUC,[28],3200 ng·h/mL
same,AUC,[29],2320 ng·h/mL
same,Vd,[30],1.39 L/kg
same,Vd,[31],4.43 L/kg
same,"activity at 20 min, 5 µM",[32],99%
